Measured values published in patent US11390609B2, “Rho-associated protein kinase inhibitor, pharmaceutical composition comprising same, and preparation method and use thereof” (BEIJING TIDE PHARMACEUTICAL CO., LTD., priority 2017, dated 2022).

Columns and labels:
[1] = target: ROCK2 (Homo sapiens, UniProt O75116); test: ROCK2 kinase IC50 assay (CISBIO HTRF KinEASE-STK S2 kit); assay type: biochemical; conditions: incubated at room temperature for 2 hours
Summary of the method: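 HTRF KinEASE-STK S2 format with recombinant ROCK2 (1.4 ng per well), STK-S2 substrate and ATP from 5× working solutions of 1.5 μM each, run 2 h at room temperature. Nine-point dilutions from 10000 nM top concentration; 665/615 nm emission ratio normalised to no-compound and no-kinase controls, curve-fitted for IC50.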

[2] = target: ROCK1 (Homo sapiens (Human), UniProt Q13464); test: ROCK1 kinase IC50 assay (biological test method similar to the ROCK2 assay); assay type: biochemical
ROCK1, sequence (Q13464 whole entry, species assumed): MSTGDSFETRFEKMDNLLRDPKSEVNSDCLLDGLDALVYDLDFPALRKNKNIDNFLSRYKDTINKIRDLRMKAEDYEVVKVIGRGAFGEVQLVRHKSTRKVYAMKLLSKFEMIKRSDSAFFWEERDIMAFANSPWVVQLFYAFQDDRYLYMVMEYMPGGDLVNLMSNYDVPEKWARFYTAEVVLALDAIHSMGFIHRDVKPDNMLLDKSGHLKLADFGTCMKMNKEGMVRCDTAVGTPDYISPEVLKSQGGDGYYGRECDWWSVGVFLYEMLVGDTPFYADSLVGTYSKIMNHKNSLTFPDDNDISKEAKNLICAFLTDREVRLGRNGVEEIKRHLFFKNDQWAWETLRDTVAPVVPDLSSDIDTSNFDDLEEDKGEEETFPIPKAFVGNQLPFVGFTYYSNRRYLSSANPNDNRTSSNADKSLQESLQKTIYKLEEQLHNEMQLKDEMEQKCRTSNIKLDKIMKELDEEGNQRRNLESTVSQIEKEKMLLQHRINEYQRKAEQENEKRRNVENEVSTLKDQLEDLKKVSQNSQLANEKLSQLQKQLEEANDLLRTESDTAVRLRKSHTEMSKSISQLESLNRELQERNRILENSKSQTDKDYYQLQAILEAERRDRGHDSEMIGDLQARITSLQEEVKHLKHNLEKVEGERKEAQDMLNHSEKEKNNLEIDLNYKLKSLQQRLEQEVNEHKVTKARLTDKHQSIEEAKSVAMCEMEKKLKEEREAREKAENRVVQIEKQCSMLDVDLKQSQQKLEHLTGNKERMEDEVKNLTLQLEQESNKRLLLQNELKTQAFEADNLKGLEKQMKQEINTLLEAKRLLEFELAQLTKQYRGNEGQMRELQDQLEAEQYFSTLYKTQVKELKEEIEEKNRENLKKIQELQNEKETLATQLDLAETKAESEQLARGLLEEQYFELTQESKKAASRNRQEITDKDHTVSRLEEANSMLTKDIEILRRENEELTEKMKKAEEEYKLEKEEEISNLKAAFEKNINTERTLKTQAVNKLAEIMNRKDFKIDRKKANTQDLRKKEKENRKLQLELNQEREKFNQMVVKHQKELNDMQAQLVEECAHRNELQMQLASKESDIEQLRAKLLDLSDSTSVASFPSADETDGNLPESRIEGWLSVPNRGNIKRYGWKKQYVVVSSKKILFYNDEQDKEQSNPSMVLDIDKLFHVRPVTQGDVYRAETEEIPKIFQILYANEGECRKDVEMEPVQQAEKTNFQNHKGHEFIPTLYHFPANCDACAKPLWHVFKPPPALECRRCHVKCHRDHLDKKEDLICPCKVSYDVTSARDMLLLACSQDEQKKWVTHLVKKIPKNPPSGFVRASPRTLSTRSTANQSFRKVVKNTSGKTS
Summary of the method: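 HTRF KinEASE-STK S2 assay with the STK-S2 biotinylated substrate and ATP, at 5× working solutions of 1.5 µM each. Kinase reaction with 9-point compound dilutions ran 2 h at room temperature, followed by 1 h streptavidin-XL665/Cryptate detection. The 665/615 nm ratio was normalised to no-compound and no-kinase wells, and IC50 was obtained by curve fitting.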

Structure (SMILES) | IC50 [1] [nM] | IC50 [2] [µM]
C=Cn1c(C(=O)N2CC(F)(F)C2)cc2ccc(-c3nccc(Nc4ccc(-c5cn[nH]c5)cc4)n3)cc21 [TDI01923, (6-(4-((4-(1H-pyrazol-4-yl)phenyl)amino)pyrimidin-2-yl)-1-vinyl-1H-indol-2-yl)(3,3-difluoroazetidin-1-yl)methanone] | 50 | > 10
O=C(Nc1ccnnc1)c1cc2ccc(-c3ncc(Cl)c(Nc4ccc5[nH]ncc5c4)n3)cc2[nH]1 [TDI01844, 6-(4-((1H-indazol-5-yl)amino)-5-chloropyrimidin-2-yl)-N-(pyridazin-4-yl)-1H-indole-2-carboxamide] | 370 | > 10
CN1CCc2nc(C(=O)N3Cc4ccc(-c5nccc(Nc6ccc(-c7cn[nH]c7)cc6)n5)cc4C3)sc2C1 [TDI01973, (5-(4-((4-(1H-pyrazol-4-yl)phenyl)amino)pyrimidin-2-yl)isoindolin-2-yl)(5-methyl-4,5,6,7-tetrahydrothiazolo[5,4-c]pyridin-2-yl)methanone] | 52 | > 10
O=C(NC1CC(F)C1)c1cc2ccc(-c3nc(Nc4ccc(-c5cn[nH]c5)cc4)c4sccc4n3)cc2[nH]1 (centres unmarked) [TDI01487, 6-(4-((4-(1H-pyrazol-4-yl)phenyl)amino)thieno [3,2-d]pyrimidin-2-yl)-N-(3-fluorocyclobutyl)-1H-indole-2-carboxamide] | 193 | 5.04
O=C(C1CC(F)(F)C1)N1Cc2ccc(-c3ncnc(Nc4ccc(-c5cn[nH]c5)cc4)n3)cc2C1 [TDI01536, (5-(4-((4-(1H-pyrazol-4-yl)phenyl)amino)-1,3,5-triazin-2-yl)isoindolin-2-yl)(3,3-difluorocyclobutyl)methanone] | 105 | > 10
Cn1c(C(=O)N2C[C@@H](F)[C@@H](F)C2)cc2ccc(-c3nccc(Nc4ccc(-c5cn[nH]c5)cc4)n3)cc21 [TDI01514, (6-(4-((4-(1H-pyrazol-4-yl)phenyl)amino)pyrimidin-2-yl)-1-methyl-1H-indol-2-yl) ((3S,4R)-3,4-difluoropyrrolidin-1-yl)methanone] | 49 | 2.73
O=C(c1cc2ccc(-c3ncc(F)c(Nc4ccc(-c5cn[nH]c5)cc4)n3)cc2s1)N1CC(F)(F)C1 [TDI01675, (6-(4-((4-(1H-pyrazol-4-yl)phenyl)-amino)-5-fluoro-pyrimidin-2-yl)benzo[b]-thiophen-2-yl)(3,3-difluoroazetidin-1-yl)methanone] | 84 | > 10
O=C(N1CCc2cc(-c3nccc(Nc4ccc(-c5cn[nH]c5)cc4)n3)ccc2C1)N1CC(F)(F)C1 [TDI01959, (6-(4-((4-(1H-pyrazol-4-yl)phenyl)amino)pyrimidin-2-yl)-3,4-dihydroisoquinolin-2(1H)-yl)(3,3-difluoroazetidin-1-yl)methanone] | 131 | > 10
O=C(Nc1ccncc1F)c1cc2ccc(-c3nccc(Nc4ccc5[nH]ncc5c4)n3)cc2[nH]1 [TDI01394, 6-(4-((1H-indazol-5-yl)amino)pyrimidin-2-yl)-N-(3-fluoropyridin-4-yl)-1H-indole-2-carboxamide] | 28 | > 10
O=C(c1cc2ccc(-c3nc(Nc4ccc5[nH]ncc5c4)c4sccc4n3)cc2[nH]1)N1CCC2(CCNCC2)CC1 [TDI01404, (6-(4-((1H-indazol-5-yl)amino)-thieno[3,2-d]pyrimidin-2-yl)-1H-indol-2-yl)(3,9-diazaspiro[5.5]undecan-3-yl)methanone] | 35 | 1.52
O=C1c2cc(-c3ncc(F)c(Nc4ccc(-c5cn[nH]c5)cc4)n3)ccc2CN1CC1CC(F)(F)C1 [TDI01590, 6-(4-((4-(1H-pyrazol-4-yl)phenyl)amino)-5-fluoropyrimidin-2-yl)-2-((3,3-difluorocyclobutyl)methyl)isoindolin-1-one] | 266 | > 10
O=C(c1cc2ccc(-c3nccc(Nc4ccc(-c5cn[nH]c5)cc4)n3)cc2[nH]1)N1CC[C@H](O)C1 [TDI01438, (S)-(6-(4-((4-(1H-pyrazol-4-yl)phenyl)amino)pyrimidin-2-yl)-1H-indol-2-yl)(3-hydroxypyrrolidin-1-yl)methanone] | 402 | > 10
O=C(c1cc2ccc(-c3nccc(Nc4ccc(-c5cn[nH]c5)cc4)n3)cc2[nH]1)N1CC(O)C1 [TDI01437, (6-(4-((4-(1H-pyrazol-4-yl)phenyl)amino)pyrimidin-2-yl)-1H-indol-2-yl)(3-hydroxyazetidin-1-yl)methanone] | 247 | > 10
O=C(c1cc2ccc(-c3nccc(Nc4ccc(-c5cn[nH]c5)cc4)n3)cc2[nH]1)N1CCC(F)(F)C1 [TDI01463, (6-(4-((4-(1H-pyrazol-4-yl)phenyl)amino)pyrimidin-2-yl)-1H-indol-2-yl)(3,3-difluoropyrrolidin-1-yl)methanone] | 11 | > 10
Cn1c(C(=O)N2CC(F)(F)C2)cc2ccc(-c3ncc(C(F)(F)F)c(Nc4ccc(-c5cn[nH]c5)cc4)n3)cc21 [TDI01681, (6-(4-((4-(1H-pyrazol-4-yl)phenyl)amino)-5-(trifluoromethyl)pyrimidin-2-yl)-1-methyl-1H-indol-2-yl)(3,3-difluoroazetidin-1-yl)methanone] | 238 | > 10
O=C(C1CCOCC1)N1Cc2ccc(-c3nccc(Nc4ccc(-c5cn[nH]c5)cc4)n3)cc2C1 [TDI01560, (5-(4-((4-(1H-pyrazol-4-yl)phenyl)amino)pyrimidin-2-yl)isoindolin-2-yl)(tetrahydro-2H-pyran-4-yl)methanone] | 83 | > 10
CC(C)NC(=O)c1cc2ccc(-c3nc(Nc4ccc(-c5cn[nH]c5)cc4)c4ccccc4n3)cc2[nH]1 [TDI01862, 6-(4-((4-(1H-pyrazol-4-yl)phenyl)-amino)-quinazolin-2-yl)-N-isopropyl-1H-indole-2-carboxamide] | 382 | > 10
Cn1c(C(=O)N2CCC(F)(F)C2)cc2ccc(-c3nccc(Nc4ccc(-c5cn[nH]c5)cc4)n3)cc21 [TDI01507, (6-(4-((4-(1H-pyrazol-4-yl)phenyl)amino)pyrimidin-2-yl)-1-methyl-1H-indol-2-yl)(3,3-difluoropyrrolidin-1-yl)methanone] | 113 | 6.84
CN1CCC[C@H]1C(=O)N1Cc2ccc(-c3nccc(Nc4ccc(-c5cn[nH]c5)cc4)n3)cc2C1 [TDI01968A, 5-(4-((4-(1H-pyrazol-4-yl)phenyl)amino)pyrimidin-2-yl)-2-(methyl-L-prolyl)isoindoline] | 296 | > 10
N#CC1CN(C(=O)c2cc3ccc(-c4nccc(Nc5ccc(-c6cn[nH]c6)cc5)n4)cc3s2)C1 [TDI01500, 1-(6-(4-((4-(1H-pyrazol-4-yl)phenyl)-amino)-pyrimidin-2-yl)benzo[b]-thiophene-2-carbonyl)-azetidine-3-carbonitrile] | 13 | > 10
O=C(c1cc2ccc(-c3nccc(Nc4ccc(-c5cn[nH]c5)cc4)n3)cc2[nH]1)N1CCC(F)C1 (centres unmarked) [TDI01473, (6-(4-((4-(1H-pyrazol-4-yl)phenyl)amino)pyrimidin-2-yl)-1H-indol-2-yl)(3-fluoropyrrolidin-1-yl)methanone] | 18 | 0.592
O=C(OC1CC(F)(F)C1)N1Cc2ccc(-c3nccc(Nc4ccc(-c5cn[nH]c5)cc4)n3)cc2C1 [TDI01562, 3,3-difluorocyclobutyl 5-(4-((4-(1H-pyrazol-4-yl)phenyl)amino)pyrimidin-2-yl)isoindoline-2-carboxylate] | 23 | > 10
O=C(OCc1ccccc1)N1Cc2ccc(-c3nccc(Nc4ccc(-c5cn[nH]c5)cc4)n3)cc2C1 [TDI01559, benzyl 5-(4-((4-(1H-pyrazol-4-yl)phenyl)amino)pyrimidin-2-yl)isoindolin-2-carboxylate] | 170 | > 10
O=C(c1cc2ccc(-c3nccc(Nc4ccc(-c5cn[nH]c5)cc4)n3)cc2[nH]1)N1CC(=NO)C1 [TDI01498, (6-(4-((4-(1H-pyrazol-4-yl)phenyl)amino)pyrimidin-2-yl)-1H-indol-2-yl)(3-(hydroxyimino)azetidin-1-yl)methanone] | 415 | > 10
CC(O)C(=O)N1Cc2ccc(-c3nccc(Nc4ccc(-c5cn[nH]c5)cc4)n3)cc2C1 (centres unmarked) [TDI01989, 1-(5-(4-((4-(1H-pyrazol-4-yl)phenyl)amino)pyrimidin-2-yl)isoindolin-2-yl)-2-hydroxypropan-1-one] | 385 | > 10
CC(NC(=O)c1cc2ccc(-c3nccc(Nc4ccc(-c5cn[nH]c5)cc4)n3)cc2n1C)C(F)(F)F (centres unmarked) [TDI01457, 6-(4-((4-(1H-pyrazol-4-yl)phenyl)amino)pyrimidin-2-yl)-1-methyl-N-(1,1,1-trifluoropropan-2-yl)-1H-indole-2-carboxamide] | 395 | 4.89
O=C(OC1CC2(CNC2)C1)N1Cc2ccc(-c3nccc(Nc4ccc(-c5cn[nH]c5)cc4)n3)cc2C1 [TDI01634, 2-azaspiro[3.3]heptan 6-yl 5-(4-((4-(1H-pyrazol-4-yl)phenyl)amino)pyrimidin-2-yl)isoindoline-2-carboxylate] | 16 | 2.04
Cn1c(C(=O)N2CC(F)(F)C2)cc2ccc(-c3nc(Nc4ccc(-c5cn[nH]c5)cc4)c4cccn4n3)cc21 [TDI01948, (6-(4-((4-(1H-pyrazol-4-yl)phenyl)amino)pyrrolo[2,1-f][1,2,4]triazin-2-yl)-1-methyl-1H-indol-2-yl)(3,3-difluoroazetidin-1-yl)methanone] | 103 | > 10
